Results on 18 compounds are retold here after PubChem BioAssay AID256 (DTP/NCI, 2004).

Values joined by “and” are separate entries in the source; they are usually repeats but may differ in a detail not shown here. Equal entries are not always repeated. Inconclusive results and toxic doses are left out.

This assay deals with CD2F1 mice, L1210 leukemia ip, survival T/C. As to the kind of experiment: NCI In Vivo Anticancer Drug Screen. Data for tumor model L1210 Leukemia (intraperitoneal) in CD2F1 (CDF1) mice. As to conditions: higher = longer survival. The procedure, abridged:
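Read-out first: treated-group measurement over vehicle-control measurement, expressed as a ratio. Animals bore a transplanted tumor line and were dosed with compound or vehicle.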

The mark [1] stands for this setting: endpoint: mean survival time, dose: 75.0 mg/kg/injection, schedule: Q01DX001 (ip), vehicle: saline.
Setting [2] is: endpoint: mean survival time, dose: 100.0 mg/kg/injection, schedule: Q04DX003 (ip), vehicle: saline with Tween-80.
The mark [3] stands for this setting: endpoint: mean survival time, dose: 200.0 mg/kg/injection, schedule: Q04DX003 (ip), vehicle: saline with Tween-80.
The mark [4] stands for this setting: endpoint: mean survival time, dose: 400.0 mg/kg/injection, schedule: Q04DX003 (ip), vehicle: saline with Tween-80.
The mark [5] stands for this setting: endpoint: mean survival time, dose: 25.0 mg/kg/injection, schedule: Q01DX009 (ip), vehicle: saline.
Setting [6] is: endpoint: mean survival time, dose: 50.0 mg/kg/injection, schedule: Q01DX009 (ip), vehicle: saline.
Setting [7] is: endpoint: mean survival time, dose: 100.0 mg/kg/injection, schedule: Q01DX009 (ip), vehicle: saline.

In the case of `Cc1cc2c(C)c3cc(C)c(N)cc3nc2cc1N`, the T/C under setting [1] was 103 % of control.
Regarding `C1COC2(CCC3C2C2CCC4(OCCO4)C32)O1` (stereo not given), the T/C reads like this: under setting [2], 103 % of control; under setting [3], 101 % of control; under setting [4], 116 % of control.
The matching figures for `CC(C)C1C(=O)CCCC1=O`: 102 % of control, 105 % of control and 96 % of control.
As to `N#CCCCCCCN=[N+]=[N-]`, the T/C by setting is: under setting [1], 98 % of control; (endpoint: mean survival time, dose: 150.0 mg/kg/injection, schedule: Q01DX001 (ip), vehicle: saline) 98 % of control.
Regarding `Nc1ccc(O)c2ccccc12`, the T/C is, setting by setting: (endpoint: mean survival time, dose: 1.5 mg/kg/injection, schedule: Q04DX003 (ip), vehicle: other) 111 % of control; (endpoint: mean survival time, dose: 3.0 mg/kg/injection, schedule: Q04DX003 (ip), vehicle: other) 102 % of control.
Take `COc1ccc2c(c1OC)C1C3CC=CC3C2C2=[N+]1CCc1cc3c(cc12)OCO3` (stereo not given): the T/C by setting is: (endpoint: mean survival time, dose: 12.5 mg/kg/injection, schedule: Q04DX003 (ip), vehicle: saline) 97 % of control; (endpoint: mean survival time, dose: 25.0 mg/kg/injection, schedule: Q04DX003 (ip), vehicle: saline) 104 % of control; (endpoint: mean survival time, dose: 100.0 mg/kg/injection, schedule: Q04DX003 (ip), vehicle: saline) 97 % of control.
In the case of `OCC1OC(n2cnc3c(NO)nc(NO)nc32)C(O)C1O` (stereo not given), the T/C (endpoint: mean survival time, dose: 2.25 mg/kg/injection, schedule: Q01DX009 (ip), vehicle: saline) is 115 % of control; the T/C (endpoint: mean survival time, dose: 4.5 mg/kg/injection, schedule: Q01DX009 (ip), vehicle: saline) was 116 % of control; the T/C (endpoint: mean survival time, dose: 9.0 mg/kg/injection, schedule: Q01DX009 (ip), vehicle: saline) is 116 % of control; the T/C (endpoint: mean survival time, dose: 18.0 mg/kg/injection, schedule: Q01DX009 (ip), vehicle: saline) was 122 % of control; the T/C (endpoint: mean survival time, dose: 36.0 mg/kg/injection, schedule: Q01DX009 (ip), vehicle: saline) was 192 % of control; the T/C (endpoint: median survival time, dose: 36.0 mg/kg/injection, schedule: Q01DX009 (ip), vehicle: saline) is 178 % of control. Moreover, the T/C by setting is: (endpoint: median survival time, dose: 54.0 mg/kg/injection, schedule: Q01DX009 (ip), vehicle: saline) 188 % of control; (endpoint: median survival time, dose: 72.0 mg/kg/injection, schedule: Q01DX009 (ip), vehicle: saline) 202 % of control.
On to `NC(CSC1(c2ccc(Cl)cc2)c2ccccc2-c2ccccc21)C(=O)O` (stereo not given), for which the T/C was 100 % of control under setting [5], 96 % of control under setting [6] and 96 % of control under setting [7].
Consider `[Cl][Pt+2]([Cl])([Cl])[Cl].[NH-]Cc1ccccc1C[NH-]`, for which the T/C was 110 % of control (endpoint: mean survival time, dose: 5.0 mg/kg/injection, schedule: Q04DX003 (ip), vehicle: saline with Tween-80); 118 % of control (endpoint: mean survival time, dose: 10.0 mg/kg/injection, schedule: Q04DX003 (ip), vehicle: saline with Tween-80); 120 % of control (endpoint: mean survival time, dose: 20.0 mg/kg/injection, schedule: Q04DX003 (ip), vehicle: saline with Tween-80); 86 % of control (endpoint: mean survival time, dose: 40.0 mg/kg/injection, schedule: Q04DX003 (ip), vehicle: saline with Tween-80).
In the case of `CC(C)(SC(c1ccccc1)(c1ccccc1)c1ccccc1)C(N)C(=O)O` (stereo not given), the T/C was 106 % of control under setting [5] and 103 % of control under setting [6].
For the compound `C/C(=C\C(=O)c1ccccc1)OB(F)F`, the T/C is, setting by setting: (endpoint: mean survival time, dose: 100.0 mg/kg/injection, schedule: Q01DX009 (ip), vehicle: saline with Tween-80) 98 % of control and 100 % of control; (endpoint: mean survival time, dose: 200.0 mg/kg/injection, schedule: Q01DX009 (ip), vehicle: saline with Tween-80) 110 % of control and 100 % of control; (endpoint: mean survival time, dose: 400.0 mg/kg/injection, schedule: Q01DX009 (ip), vehicle: saline with Tween-80) 100 % of control.
As for `COc1cccc2c1C(=O)c1c(O)c3c(c(O)c1C2=O)C[C@@](O)(C(C)=O)C[C@@H]3OC1CC(N(C)C)C(O)C(C)O1` (stereo not given in full), the T/C by setting is: (endpoint: mean survival time, dose: 0.25 mg/kg/injection, schedule: Q01DX009 (ip), vehicle: saline) 109 % of control; (endpoint: mean survival time, dose: 0.5 mg/kg/injection, schedule: Q01DX009 (ip), vehicle: saline) 120 % of control and 111 % of control; (endpoint: mean survival time, dose: 0.5 mg/kg/injection, schedule: Q01DX009 (ip), vehicle: water) 110 % of control; (endpoint: mean survival time, dose: 1.0 mg/kg/injection, schedule: Q01DX009 (ip), vehicle: saline) 105 % of control; (endpoint: mean survival time, dose: 1.0 mg/kg/injection, schedule: Q01DX009 (ip), vehicle: water) 119 % of control; (endpoint: mean survival time, dose: 2.0 mg/kg/injection, schedule: Q01DX009 (ip), vehicle: saline) 102 % of control. In addition, the T/C by setting is: (endpoint: mean survival time, dose: 4.0 mg/kg/injection, schedule: Q01DX009 (ip), vehicle: saline) 161 % of control; (endpoint: mean survival time, dose: 8.0 mg/kg/injection, schedule: Q01DX009 (ip), vehicle: saline) 88 % of control and 103 % of control; (endpoint: mean survival time, dose: 8.0 mg/kg/injection, schedule: Q01DX009 (ip), vehicle: water) 88 % of control.
For the compound `OCCCN1CCCCC1CO` (stereo not given), the T/C by setting is: (endpoint: mean survival time, dose: 12.5 mg/kg/injection, schedule: Q01DX009 (ip), vehicle: saline) 101 % of control and 103 % of control; under setting [5], 98 % of control and 100 % of control; under setting [6], 97 % of control and 98 % of control; under setting [7], 97 % of control and 98 % of control; (endpoint: mean survival time, dose: 200.0 mg/kg/injection, schedule: Q01DX009 (ip), vehicle: saline) 98 % of control; (endpoint: mean survival time, dose: 400.0 mg/kg/injection, schedule: Q01DX009 (ip), vehicle: saline) 91 % of control and 97 % of control. Moreover, the T/C is 103 % of control (endpoint: median survival time, dose: 400.0 mg/kg/injection, schedule: Q01DX009 (ip), vehicle: saline) and 97 % of control (endpoint: median survival time, dose: 800.0 mg/kg/injection, schedule: Q01DX009 (ip), vehicle: saline).
On to `O=c1c2nc(-c3ccccc3)oc2ncn1C1OC(CO)C(O)C1O` (stereo not given), for which the T/C is 100 % of control (endpoint: mean survival time, dose: 100.0 mg/kg/injection, schedule: Q01DX005 (ip), vehicle: saline) and 98 % of control (endpoint: mean survival time, dose: 200.0 mg/kg/injection, schedule: Q01DX005 (ip), vehicle: saline).
As to `CCOC(=O)N/N=C/C(Br)=C\c1ccccc1`, the T/C is, setting by setting: (endpoint: mean survival time, dose: 12.5 mg/kg/injection, schedule: Q01DX009 (ip), vehicle: saline with Tween-80) 97 % of control; (endpoint: mean survival time, dose: 25.0 mg/kg/injection, schedule: Q01DX009 (ip), vehicle: saline with Tween-80) 92 % of control; (endpoint: mean survival time, dose: 50.0 mg/kg/injection, schedule: Q01DX009 (ip), vehicle: saline with Tween-80) 92 % of control.
For `O=Cc1ccc(OC(=O)Nc2cccc3ccccc23)cc1`, the T/C was 91 % of control (endpoint: mean survival time, dose: 100.0 mg/kg/injection, schedule: Q04DX002 (ip), vehicle: saline with Tween-80); 98 % of control (endpoint: mean survival time, dose: 200.0 mg/kg/injection, schedule: Q04DX002 (ip), vehicle: saline with Tween-80); 87 % of control (endpoint: mean survival time, dose: 400.0 mg/kg/injection, schedule: Q04DX002 (ip), vehicle: saline with Tween-80).
Turning to `N=c1c2c(C(N)=O)cn(C3OC(CO)C(O)C3O)c2ncn1N` (stereo not given), the T/C reads like this: (endpoint: mean survival time, dose: 14.7 mg/kg/injection, schedule: Q01DX005 (ip), vehicle: water) 110 % of control; (endpoint: mean survival time, dose: 22.0 mg/kg/injection, schedule: Q01DX005 (ip), vehicle: water) 118 % of control; (endpoint: mean survival time, dose: 25.0 mg/kg/injection, schedule: Q01DX005 (ip), vehicle: water) 117 % of control; (endpoint: mean survival time, dose: 33.0 mg/kg/injection, schedule: Q01DX005 (ip), vehicle: water) 121 % of control; (endpoint: mean survival time, dose: 50.0 mg/kg/injection, schedule: Q01DX005 (ip), vehicle: water) 120 % of control; (endpoint: mean survival time, dose: 75.0 mg/kg/injection, schedule: Q01DX005 (ip), vehicle: water) 106 % of control. Moreover, the T/C (endpoint: mean survival time, dose: 100.0 mg/kg/injection, schedule: Q01DX005 (ip), vehicle: water) is 98 % of control.
As to `Cc1cnc(/C=N\NC(N)=S)c2cccc(N)c12`, the T/C (endpoint: mean survival time, dose: 3.13 mg/kg/injection, schedule: Q01DX009 (ip), vehicle: Klucel (hydroxypropylcellulose) (HPC)) was 124 % of control; the T/C (endpoint: mean survival time, dose: 3.13 mg/kg/injection, schedule: Q01DX009 (ip), vehicle: saline with Tween-80) was 122 % of control; the T/C (endpoint: mean survival time, dose: 5.4 mg/kg/injection, schedule: Q03HX024 (ip), vehicle: Klucel (hydroxypropylcellulose) (HPC)) is 123 % of control; the T/C (endpoint: mean survival time, dose: 8.0 mg/kg/injection, schedule: Q03HX024 (ip), vehicle: Klucel (hydroxypropylcellulose) (HPC)) was 151 % of control; the T/C (endpoint: mean survival time, dose: 12.0 mg/kg/injection, schedule: Q03HX024 (ip), vehicle: Klucel (hydroxypropylcellulose) (HPC)) was 112 % of control; the T/C (endpoint: mean survival time, dose: 25.0 mg/kg/injection, schedule: Q01DX009 (ip), vehicle: Klucel (hydroxypropylcellulose) (HPC)) is 168 % of control. For the same compound, the T/C (endpoint: mean survival time, dose: 50.0 mg/kg/injection, schedule: Q01DX009 (ip), vehicle: Klucel (hydroxypropylcellulose) (HPC)) is 89 % of control; the T/C (endpoint: median survival time, dose: 3.89 mg/kg/injection, schedule: Q01DX005 (ip), vehicle: other) is 114 % of control; the T/C (endpoint: median survival time, dose: 6.48 mg/kg/injection, schedule: Q01DX005 (ip), vehicle: other) is 122 % of control.
